Key:
MC4R [1] = biological target: MC4R (Mus musculus, UniProt P56450); assay: Short-circuit current; type: cell-based
MC4R [2] = assay: α-MSH ISC response in human colon mucosa after antagonist pretreatment; type: cell-based; conditions: BIBO 300 nM, BIIE 1 μM, HS014 100 nM, each alone, 30 min prior to α-MSH
GPR119 = assay: Short-circuit current; type: cell-based, mouse; conditions: MC4R−/− mice, 10 μM apical

Sequence of MC4R (Mus musculus, UniProt P56450) (P56450 whole entry): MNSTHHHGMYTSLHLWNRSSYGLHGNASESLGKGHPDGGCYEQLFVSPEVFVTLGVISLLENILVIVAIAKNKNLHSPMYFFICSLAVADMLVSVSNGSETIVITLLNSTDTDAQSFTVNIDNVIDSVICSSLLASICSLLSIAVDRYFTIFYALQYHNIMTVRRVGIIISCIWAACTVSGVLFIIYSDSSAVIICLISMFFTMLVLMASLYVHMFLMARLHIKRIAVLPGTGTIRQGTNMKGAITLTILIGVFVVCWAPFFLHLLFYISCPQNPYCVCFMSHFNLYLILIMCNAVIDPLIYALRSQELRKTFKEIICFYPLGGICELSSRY

SMILES: NC(=O)NCc1ccc(CNC(=O)[C@@H](CCCN=C(N)N)NC(=O)C(c2ccccc2)c2ccccc2)cc1 [BIBO3304]
- Effect of pretreatment on α-MSH (1 μM, bl) ISC response in mouse colon (MC4R [1]): almost completely blocked
- Effect of pretreatment on α-MSH (1 μM, bl) ISC response in human colon mucosa (MC4R [2]): blockade

SMILES: N=C(N)NCCC[C@H](NC(=O)CC1(CC(=O)N2CCN(C3c4ccccc4NC(=O)c4ccccc43)CC2)CCCC1)C(=O)NCCn1c(=O)n(-c2ccccc2)n(-c2ccccc2)c1=O (some centres unmarked) [BIIE0246]
- Effect of pretreatment on α-MSH (1 μM, bl) ISC response in human colon mucosa (MC4R [2]): not by BIIE alone

SMILES: CC(C)(C)OC(=O)N1CCC(OCc2nc(-c3ccncc3)no2)CC1 [PSN632408]
- Response in MC4R−/− mucosae versus MC4R+/+ mucosae (GPR119): not significantly different

SMILES: NC1=N[C@H](O)[C@H]2[C@H]3O[C@]4(O)O[C@@H]([C@@H](O)[C@@]2(N1)[C@@H]4O)[C@]3(O)CO [tetrodotoxin]
- Effect of pretreatment on α-MSH (1 μM, bl) ISC response in mouse colon (MC4R [1]): not tetrodotoxin (TTX) sensitive

From paper PMC4255280 (Cell metabolism, 2014)
